Test results from article PMC8999917, “Structure–Activity Relationship of Synthetic Ginkgolic Acid Analogs for Treating Type 2 Diabetes by PTPN9 Inhibition” (International Journal of Molecular Sciences, 2022).

What was measured:
DUSP9 = target: T1, DUSP9 (Homo sapiens, UniProt Q99956); experiment: DUSP9 enzyme inhibition with DiFMUP substrate; format: biochemical; settings: DiFMUP 90 µM, DUSP9 200 nM; NA: no activity
T1 construct: made in house; host or cells: Escherichia coli Rosetta (DE3)
T1 sequence (Q99956 1-384): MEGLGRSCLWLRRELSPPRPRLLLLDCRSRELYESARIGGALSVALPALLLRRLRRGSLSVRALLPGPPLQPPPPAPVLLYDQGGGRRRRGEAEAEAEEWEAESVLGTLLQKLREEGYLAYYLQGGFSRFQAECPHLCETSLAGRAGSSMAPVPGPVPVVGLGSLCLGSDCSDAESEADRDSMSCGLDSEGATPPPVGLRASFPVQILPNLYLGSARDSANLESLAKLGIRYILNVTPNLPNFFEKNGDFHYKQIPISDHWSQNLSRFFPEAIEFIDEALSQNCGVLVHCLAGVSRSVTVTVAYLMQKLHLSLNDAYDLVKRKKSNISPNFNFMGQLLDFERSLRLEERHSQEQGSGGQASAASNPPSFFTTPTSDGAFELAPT
Method: (§1) The purification and kinetic analyses of PTPN9 and DUSP9 (Ser277–581) were performed following methods described in the literature, with slight modifications. PAGE analysis data and enzyme kinetic constants are presented in Figure S1 and Table S1, respectively. Enzyme activity in the presence or absence of the compounds was measured using DiFMUP, a representative PTP fluorogenic substrate. First, the inhibitory effects of compounds 1–3 were evaluated using 50 µM PTPN9 and 20 µM DUSP9. There was an increase in the inhibitory activity of compound 1 for both enzymes as the number of CH2 units increased from 9 to 14 (Figure 2A,B).
(§2) Next, the IC50 values of the compounds, which induce a 50% inhibition of DiFMUP hydrolytic enzyme activity, were determined (Table 1). The IC50 values were determined from the dose–response enzyme inhibition curves of each compound. The dose–response curves for compounds 1e and 1f against PTPN9 and DUSP9, respectively, are presented in Figure 2C,D. Dose–response curves were also obtained for the other compounds (Figures S2 and S3).
(§3) The methods employed for PTP overexpression and purification have been described in a previous study. In brief, human PTPN9 and DUSP9 were cloned into a pET28a vector (Merk Millipore, Darmstadt, Germany) containing a hexahistidine (His6) tag or a maltose-binding protein (MBP) tag in its N-terminus (see Supplementary Materials). Recombinant genes were separately transformed into Escherichia coli Rosetta (DE3) (Merk Millipore, Darmstadt, Germany), and the overexpression of each gene was induced via the addition of 0.1 mM IPTG (Ducherfa Biochemie, Haarlem, RV, USA). After 16 h of incubation at 18 °C, cell pellets were obtained via centrifugation (3570× g at 4 °C for 15 min), resuspended in lysis buffer (50 mM Tris, pH: 7.5, 500 mM NaCl, 5% glycerol, 0.025% 2-mercaptoethanol, and 1 mM phenyl-methylsulfonyl fluoride (PMSF)), and lysed by ultrasonication. Subsequently, cell lysates were centrifuged at 29,820× g for 30 min at 4 °C; then, the supernatant was collected and incubated with a cobalt affinity resin (TALON® Metal Affinity Resin, Takara Korea, Seoul, Korea). After 1 h of incubation at 4 °C, the desired proteins were eluted by adding the lysis buffer supplemented with 100 mM imidazole. Samples were stored at –80 °C until use.
(§4) The enzymatic activities of purified PTPN9 and DUSP9 were measured using 6,8-difluoro-4-methylumbelliferyl phosphate (DiFMUP), the most widely used fluorogenic PTP substrate in the literature. To determine KM values, PTPN9 (0.15 nM) and DUSP9 (200 nM) were added to a reaction buffer (20 mM Bis-tris, pH: 7.0, 150 mM NaCl, 2.5 mM dithiothreitol (DTT), and 0.01% Triton X-100) containing DiFMUP (800, 400, 200, 100, 50, 25, 12.5, or 6.25 μM) in a 96-well black plate. The final reaction volume was 100 µL. The fluorescence intensity was continuously monitored for 10 min (Ex/Em = 355/460 nm) on a Victor™ X4 multilabel plate reader (Perkin Elmer, Norwalk, CT, USA). KM values were obtained using Lineweaver–Burk plots analysis.
(§5) To evaluate the enzyme inhibitory effects of GA and its analogs, 10 µl of the enzyme stock solution (1.5 nM PTPN9 and 2 µM DUSP9) in the reaction buffer was added into the mixture of DiFMUP (to a final concentration of 220 µM and 90 µM for PTPN9 and DUSP9, respectively) and each compound (to a final concentration of 50 µM and 20 µM for PTPN9 and DUSP9, respectively) was added to the reaction buffer. Enzyme activity was measured as described above. Half-inhibitory concentration (IC50) values were determined under similar conditions, except for the concentrations of the inhibitors (200, 100, 50, 25, 12.5, 6.25, or 3.125 µM for PTPN9 and 25, 12.5, 6.25, 3.125, 1.563, 0.782, or 0.391 µM for DUSP9). The dose-dependent curve was fitted to the four-parameter logistic regression equation, (y = a + (b – a)/(1 + (x/c)^d), to obtain IC50 values using the Kaleida Graph software Ver. 4.1.3. (Synergy Software Inc, PA, USA).

[1] = test system: Akt phosphorylation in PA-induced insulin-resistant C2C12 cells; experiment: Palmitic acid-induced insulin resistance in C2C12 myotubes (p-Akt); format: cell-based, mouse; settings: PA (250 µM, 16 h)-treated C2C12, 5 μM compound for 30 min with 100 nM insulin
Method: Since insulin plays an important role in regulating glucose metabolism through the redistribution of GLUT4 from intracellular vesicles to the cell surface, it is important to describe the interaction between 1e and insulin in the Akt pathway. […] Next, we evaluated the protective effects of 1e against PA-induced insulin resistance in C2C12 myotubes. To generate an insulin resistance model, C2C12 myotubes were treated with 250 µM PA in a serum-free medium for 16 h. Akt phosphorylation levels in PA-treated C2C12 cells decreased by 50% compared to levels in normal C2C12 cells (Figure 6C). Furthermore, in the presence of insulin and GA, Akt phosphorylation levels decreased only by 30% compared to levels in normal cells. […] In addition, the GA analogs induced no cytotoxic effects in C2C12 muscle cells (data not shown). […] The expression levels of glucose uptake-related proteins were determined via Western blotting, as previously described. In brief, differentiated 3T3-L1 cells were plated in six-well plates at a 1.5 × 10^4 cells/well density in a final volume of 2 mL. […] Secondary antibodies were added to the membranes at a concentration of 1:2000 for 1 h at room temperature, and immunoreactive bands were detected via ECL (GE Healthcare Korea Co., Ltd., Incheon, Korea). […]

PTPN9 = target: T2, PTPN9 (Homo sapiens, UniProt P43378); experiment: PTPN9 enzyme inhibition with DiFMUP substrate; format: biochemical; settings: DiFMUP 220 µM, PTPN9 0.15 nM; NA: no activity
T2 construct: made in house; host or cells: Escherichia coli Rosetta (DE3)
T2 sequence (P43378 277-581): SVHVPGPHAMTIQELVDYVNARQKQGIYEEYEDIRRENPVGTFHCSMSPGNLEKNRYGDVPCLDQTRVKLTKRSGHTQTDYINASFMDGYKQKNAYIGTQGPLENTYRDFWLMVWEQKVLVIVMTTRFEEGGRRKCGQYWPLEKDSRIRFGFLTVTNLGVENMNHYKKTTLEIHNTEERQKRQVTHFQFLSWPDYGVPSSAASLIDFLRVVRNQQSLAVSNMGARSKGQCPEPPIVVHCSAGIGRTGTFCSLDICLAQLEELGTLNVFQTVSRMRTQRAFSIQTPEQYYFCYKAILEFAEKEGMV
Method: as §1, §2, §3, §4, §5

## CCCCCCCCCCCCCc1cccc(O)c1C(=O)O [GA, Ginkgolic acid (C13:0), reference compound]
DUSP9
  IC50: 3.64 ± 0.11 µM
[1]
  decrease of Akt phosphorylation levels compared to normal cells: 30%
PTPN9
  IC50: 21.8 ± 0.45 µM
